Measurements reported in patent US5668173A, “Method of increasing the conversion of homocysteine to methionine and uses thereof” (priority 1996, dated 1997).
“Also recorded” adds a separate entry of the source. Where two headings read alike, the source gives them in different places.

Columns and labels:
[1] = high dietary levels; cited from earlier work
[2] = system: hepatic betaine-homocysteine methyltransferase; settings: surfeit dietary levels, crude liver extracts, compared to control; cited from earlier work
[3] = system: human betaine-homocysteine methyltransferase; settings: human enzyme containing extracts; read-out: Michealis constant; cited from earlier work
[4] = system: betaine-homocysteine methyltransferase; settings: cited from earlier work; for methionine produced compared with betaine as methyl donor: saturating levels of substrates, corrected for enzyme concentration
chickens [5] = settings: cited from earlier work
[6] = cited from earlier work; for urinary level during betaine treatment: urine
[7] = system: rat betaine-homocysteine methyltransferase; settings: rat enzyme containing extracts; read-out: Michealis constant; cited from earlier work
[8] = biological target: T1, pig liver betaine-homocysteine methyltransferase (Sus scrofa, UniProt A0A5G2RCW6); assay: Initial rate kinetics of purified pig liver betaine-homocysteine methyltransferase; type: biochemical; settings: for Vmax(rel): Table II, relative, corrected for an equivalent amount of enzyme
T1 construct: given as hexamer, now known as homotetramer
T1 sequence (A0A5G2RCW6 1-407): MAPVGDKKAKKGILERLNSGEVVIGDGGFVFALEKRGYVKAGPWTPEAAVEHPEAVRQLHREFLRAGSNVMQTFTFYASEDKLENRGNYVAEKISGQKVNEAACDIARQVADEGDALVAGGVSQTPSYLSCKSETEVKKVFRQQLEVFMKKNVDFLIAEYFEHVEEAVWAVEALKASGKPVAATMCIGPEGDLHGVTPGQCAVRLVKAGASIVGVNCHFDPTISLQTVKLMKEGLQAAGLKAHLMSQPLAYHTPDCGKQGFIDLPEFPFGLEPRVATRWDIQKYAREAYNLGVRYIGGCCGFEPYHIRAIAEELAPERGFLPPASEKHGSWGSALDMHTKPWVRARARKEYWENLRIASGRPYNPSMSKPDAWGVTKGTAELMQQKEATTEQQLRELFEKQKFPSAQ
Method: (§1) Betaine-homocysteine methyltransferase activity was measured as described by Finkelstein and Mudd (43) with the following minor modifications. […] Following a 2 hour incubation, samples were chilled to 0° C. and 2.5 mL ice-cold water was added. The samples were loaded onto a 0.5 cm (diameter) column containing 1 mL of Dowex 1-X4 (OH--) resin (100-200 mesh). The unreacted betaine (or dimethylacetothetin) was washed from the column with water (3×5 mL), and dimethylglycine (or methylthioacetate) and methionine eluted into scintiallation vials with 3 mL 1.5 N HCl. Blanks contained all of the reaction components except enzyme and their values were subtracted from the sample values. All samples were assayed in duplicate.
Michealis and Vmax constants were estimated from plotting initial rate data according to the method of Hanes (44).
Betaine-homocysteine methyltransferase has been purified to homogeneity from pig liver (45).
Using purified enzyme, initial rate studies were performed to determine the Michaelis constants of betaine, dimethylacetothetin, and homocysteine and to investigate the kinetic mechanism of the enzyme.

growing rats = settings: cited from earlier work; for replacement of dietary requirement for choline: growing rats, diets lacking methionine but containing homocystine; for food intake and growth: thetins 0.5-0.93% (w/w) of the diet, 3 to 4 weeks
pigs = settings: dietary betaine; cited from earlier work
cystathionine-β-synthase = settings: dietary cysteine increased; cited from earlier work
Escherichia coli = settings: cited from earlier work
[9] = system: horse betaine-homocysteine methyltrasferase; settings: saturating levels of substrate; purified horse enzyme; cited from earlier work
animals = settings: prior studies; cited from earlier work
[10] = system: rat betaine-homocysteine methyltransferase; settings: cited from earlier work
[11] = system: human betaine-homocysteine methyltransferase; settings: cited from earlier work
[12] = biological target: T1, pig liver betaine-homocysteine methyltransferase; assay: Product inhibition of pig liver betaine-homocysteine methyltransferase activity; type: biochemical; settings: for pmol methionine: inhibitor 50 μM, L-homocysteine 50 μM, betaine 25 μM
Method: as §1
The subsequent metabolism of these products could have significant effects on flux through the betaine-homocysteine methyltransferase reaction because the rate of product removal would determine whether a product accumulates enough to inhibit enzyme activity. When pharmacological doses of betaine is used for the treatment of severe hyperhomocyst(e)inemia, dimethylglycine oxidation appears to be insufficient, and as a result, dimethylglycine accumulates.
Inhibition pf pig liver betaine-homocysteine methyltransferase
activity by dimethyglycine ethylthoacetate in the presence of
It is possible that homocysteine, dimethylglycine, and betaine-homocysteine methyltransferase form an abortive ternary complex.

primates = settings: infusion, 3 month period; cited from earlier work
[13] = sulfur amino acid intake optimal; cited from earlier work
chickens [14] = settings: dietary; cited from earlier work
[15] = system: cystathionine-β-synthase deficiency; settings: cited from earlier work
[16] = substrate: N[C@@H](CCS)C(=O)O; assay: purified protein, by the assay type; settings: other: saturating levels of one substrate while varying the other; betaine 250 μM or L-homocysteine 500 μM fixed
[17] = substrate: C[S+](C)CC(=O)O; assay: Initial rate kinetics of purified pig liver betaine-homocysteine methyltransferase; type: biochemical; settings: other: saturating levels of one substrate while varying the other; betaine 250 μM or L-homocysteine 500 μM fixed
Method: (§2) Betaine-homocysteine methyltransferase activity was measured as described by Finkelstein and Mudd (43) with the following minor modifications. […] Following a 2 hour incubation, samples were chilled to 0° C. and 2.5 mL ice-cold water was added. The samples were loaded onto a 0.5 cm (diameter) column containing 1 mL of Dowex 1-X4 (OH--) resin (100-200 mesh). […] Blanks contained all of the reaction components except enzyme and their values were subtracted from the sample values. All samples were assayed in duplicate.

[18] = substrate: C[N+](C)(C)CC(=O)O; assay: as above; type: biochemical; settings: other: saturating levels of one substrate while varying the other; betaine 250 μM or L-homocysteine 500 μM fixed
Method: as §2

Molecule: CSCCC(=O)O [3-methylthiopropionate]
- toxicity [1]: produces toxic symptoms identical to those produced by excess methionine consumption

Molecule: C[N+](C)(C)CC(=O)O [betaine]
- hepatic betaine-homocysteine methyltransferase activity [2]: higher levels of betaine-homocysteine methyltransferase activity
- Km [3]: 25 to 50 µM
- Kcat of betaine-dependent reaction [4]: very low Kcat
- Km ([4]; prior studies, source of enzyme not stated): 20 to 50 µM
- carcass fat (chickens [5]; dietary betaine, chickens): can reduce carcass fat
- treatment of diarrhea and wet litter (chickens [5]; fowl): effective in the treatment of diarrhea and wet litter
- normalization of plasma homocysteine ([6]; betaine treatment of severe hyperhomocyst(e)inemia): rarely attained; also recorded: usually does not fall within the normal range; also recorded: does not usually lower plasma homocysteine to within the normal range
- plasma homocysteine ([6]; pharmacological doses of betaine, hyperhomocyst(e)inemia): reduce plasma homocysteine; also recorded: generally lowers plasma homocysteine compared to pretreatment levels
- urinary level during betaine treatment [6]: dramatic increase
- Km [7]: 25 to 50 µM
- Vmax(rel) [8]: 1
- replacement of dietary requirement for choline (growing rats): can replace the dietary requirement for choline
- food intake and growth (growing rats): not different among experimental groups
- carcass fat (pigs): can reduce carcass fat

Molecule: C[N+](C)(C)CCO [choline]
- food intake and growth (growing rats): not different among experimental groups

Molecule: N[C@@H](CS)C(=O)O [cysteine]
- cystathionine-β-synthase activity and mRNA levels (cystathionine-β-synthase): decrease

Molecule: C[S+](C)CC(=O)O [dimethylacetothetin]
- effectiveness as osmolyte compared with betaine (Escherichia coli): equally effective as betaine
- methionine produced compared with betaine as methyl donor [4]: more methionine was produced
- increase in methionine production compared to betaine [9]: 350 fold
- Vmax(rel) [8]: 7
- rate of methylation of homocysteine, faster than with betaine ([8]; equimolar concentrations as betaine, inferred from Vmax/Km): at least 700%
- Vmax/Km compared with betaine ([8]; greater than that for betaine): 7 fold
- relative Vmax compared with betaine ([8]; greater than when betaine was used): 47 fold
- specificity (Vmax/Km) compared with betaine ([8]; initial rate studies): greater specificity
- replacement of dietary requirement for choline (growing rats): can replace the dietary requirement for choline; also recorded: replace the dietary requirement for choline (or betaine)
- toxicity to animals (animals): non-toxic to animals

Molecule: CN(C)CC(=O)O [dimethylglycine]
- inhibition of rat betaine-homocysteine methyltransferase [10]: potent inhibitor
- urinary level during betaine treatment [6]: dramatic increase
- inhibition of methionine production ([11]; 10 μM dimethylglycine): 50%
- inhibition of human betaine-homocysteine methyltransferase [11]: potent inhibitor
- activity at 50 µM [12]: 30%
- type of inhibition relative to homocysteine ([12]; Dixon plots, betaine 25 μM or 250 μM, L-homocysteine varied): uncompetitive inhibitor; also recorded: uncompetitive inhibition
- pmol methionine [12]: 208 pmol
- inhibition of pig betaine-homocysteine methyltransferase ([12]; product inhibition studies): potent inhibitor

Molecule: C[S+](C)CCC(=O)O [dimethylpropiothetin]
- Vmax compared with betaine-dependent reaction ([4]; previous studies): higher Vmax
- Vmax compared with dimethylacetothetin-dependent reaction ([4]; previous studies): lower Vmax
- methionine produced compared with betaine as methyl donor [4]: more methionine was produced
- increase in methionine production compared to betaine [9]: 54 fold
- replacement of dietary requirement for choline (growing rats; listed as dimethylpropriothetin): can replace the dietary requirement for choline; also recorded: replace the dietary requirement for choline (or betaine)
- toxicity to animals (animals): non-toxic to animals

Molecule: N[C@@H](CCS)C(=O)O [homocysteine]
- vascular lesions (primates): vascular lesions have been induced in primates
- Km [3]: 25 to 50 µM
- Km [7]: 25 to 50 µM

Molecule: CSCC[C@H](N)C(=O)O [methionine]
- toxicity [1]: most toxic of all amino acids required for protein synthesis
- hepatic betaine-homocysteine methyltransferase activity [2]: higher levels of betaine-homocysteine methyltransferase activity
- absorbed methionine converted to cysteine or completely oxidized [13]: about 30%
- absorbed methionine retained by the animal [13]: about 70%

Molecule: CSCC(=O)O [methylthioacetate]
- activity at 50 µM [12]: 59%
- pmol methionine [12]: 416 pmol
- affinity for betaine-homocysteine methyltransferase relative to dimethylglycine ([12]; than dimethylglycine): lower affinity

Molecule: O=S(=O)(O)O [sulfate]
- cystine requirements (chickens [14]): decrease cystine requirements

Molecule: vitamin B6
- individuals non-responsive to vitamin B6 [15]: 50%
- individuals responding to supplemental B6 [15]: approximately 50%

B1: pig liver betaine-homocysteine methyltransferase (Sus scrofa) (protein)
chain: MAPVGDKKAKKGILERLNSGEVVIGDGGFVFALEKRGYVKAGPWTPEAAVEHPEAVRQLHREFLRAGSNVMQTFTFYASEDKLENRGNYVAEKISGQKVNEAACDIARQVADEGDALVAGGVSQTPSYLSCKSETEVKKVFRQQLEVFMKKNVDFLIAEYFEHVEEAVWAVEALKASGKPVAATMCIGPEGDLHGVTPGQCAVRLVKAGASIVGVNCHFDPTISLQTVKLMKEGLQAAGLKAHLMSQPLAYHTPDCGKQGFIDLPEFPFGLEPRVATRWDIQKYAREAYNLGVRYIGGCCGFEPYHIRAIAEELAPERGFLPPASEKHGSWGSALDMHTKPWVRARARKEYWENLRIASGRPYNPSMSKPDAWGVTKGTAELMQQKEATTEQQLRELFEKQKFPSAQ
notes: given as hexamer, now known as homotetramer
- Km [16]: 32 µM
- Km [17]: 155 µM
- Km [18]: 23 µM
